Results from ChEMBL document CHEMBL1147095, “Chromosome-encoded narrow-spectrum Ambler class A beta-lactamase GIL-1 from Citrobacter gillenii” (Antimicrob Agents Chemother, 2007).
Converted amounts (≈) assume the structure as drawn.

Experiments:
[1] = target: T1, Gil1 (Citrobacter gillenii) (UniProt A4KCT8); experiment: Ratio of kcat to Km of Citrobacter gillenii CIP 106783 Beta-lactamase GIL1 expressed in Escherichia coli DH10B relative to benzyl-penicillin; design: unit not given here
T1 sequence (whole entry): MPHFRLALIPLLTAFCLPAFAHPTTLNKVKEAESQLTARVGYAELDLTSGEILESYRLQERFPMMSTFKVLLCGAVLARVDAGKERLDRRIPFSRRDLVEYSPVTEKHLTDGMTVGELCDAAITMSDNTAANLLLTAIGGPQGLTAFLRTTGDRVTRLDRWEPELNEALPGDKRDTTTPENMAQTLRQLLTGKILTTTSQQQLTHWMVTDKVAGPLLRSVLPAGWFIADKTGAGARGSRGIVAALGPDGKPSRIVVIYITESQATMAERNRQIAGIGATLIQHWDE

[2] = test system: Escherichia coli; experiment: Antimicrobial activity against Escherichia coli DH10B expressing GIL1 after 18 hrs by […]; assay type: functional
[3] = test system: Citrobacter gillenii; experiment: Antimicrobial activity against Citrobacter gillenii CIP 106783 after 18 hrs by […]; assay type: functional; conditions: CIP 106783, 18 h
[4] = test system: Escherichia coli; experiment: Antimicrobial activity against Escherichia coli DH10B after 18 hrs by […]; assay type: functional
[5] = substrate: CC(=O)OCC1=C(C(=O)O)N2C(=O)[C@@H](NC(=O)Cc3cccs3)[C@H]2SC1; experiment: (§1) Activity of Citrobacter gillenii CIP 106783 Beta-lactamase GIL1 expressed in Escherichia coli DH10B
[6] = substrate: CC1(C)S[C@@H]2[C@H](NC(=O)[C@H](N)c3ccc(O)cc3)C(=O)N2[C@H]1C(=O)O; experiment: as §1
[7] = substrate: CC1(C)S[C@@H]2[C@H](NC(=O)[C@H](C(=O)O)c3ccsc3)C(=O)N2[C@H]1C(=O)O; experiment: as §1
[8] = substrate: CCN1CCN(C(=O)N[C@@H](C(=O)N[C@@H]2C(=O)N3[C@@H]2SC(C)(C)[C@@H]3C(=O)O)c2ccccc2)C(=O)C1=O; experiment: as §1
[9] = substrate: CO/N=C(\C(=O)N[C@@H]1C(=O)N2C(C(=O)[O-])=C(C[N+]3(C)CCCC3)CS[C@H]12)c1csc(N)n1; experiment: as §1
[10] = substrate: C[C@H]1[C@H](NC(=O)/C(=N\OC(C)(C)C(=O)O)c2csc(N)n2)C(=O)N1S(=O)(=O)O; experiment: as §1
[11] = substrate: CC(C)(O/N=C(\C(=O)N[C@@H]1C(=O)N2C(C(=O)[O-])=C(C[n+]3ccccc3)CS[C@H]12)c1csc(N)n1)C(=O)O; experiment: as §1
[12] = substrate: CC1(C)S[C@@H]2[C@H](NC(=O)Cc3ccccc3)C(=O)N2[C@H]1C(=O)O; experiment: as §1
[13] = substrate: CO/N=C(\C(=O)N[C@@H]1C(=O)N2C(C(=O)[O-])=C(C[n+]3cccc4c3CCC4)CS[C@H]12)c1csc(N)n1; experiment: as §1
[14] = substrate: CO/N=C(\C(=O)N[C@@H]1C(=O)N2C(C(=O)O)=C(COC(C)=O)CS[C@H]12)c1csc(N)n1; experiment: as §1
[15] = substrate: CO/N=C(\C(=O)N[C@@H]1C(=O)N2C(C(=O)O)=C(COC(N)=O)CS[C@H]12)c1ccco1; experiment: as §1
[16] = substrate: C[C@@H](O)[C@H]1C(=O)N2C(C(=O)O)=C(SCCNC=N)C[C@H]12; experiment: as §1

Question: What does the source list for `C[C@H]1[C@H](NC(=O)/C(=N\OC(C)(C)C(=O)O)c2csc(N)n2)C(=O)N1S(=O)(=O)O` [AZTREONAM]?
Answer: Ratio [1]: 0.02; MIC [2]: 0.12 µg/mL (≈ 0.276 µM); MIC [3]: 0.06 µg/mL (≈ 0.138 µM)

Question: Which results are given for `CC(=O)OCC1=C(C(=O)O)N2C(=O)[C@@H](NC(=O)Cc3cccs3)[C@H]2SC1` [CEPHALOTHIN]?
Answer: Ratio [1]: 11; MIC [2]: 8 µg/mL (≈ 20.2 µM); MIC [3]: 2 µg/mL (≈ 5.04 µM); MIC [4]: 2 µg/mL (≈ 5.04 µM)

Question: Which results are given for `CC1(C)S[C@@H]2[C@H](NC(=O)[C@H](N)c3ccc(O)cc3)C(=O)N2[C@H]1C(=O)O` [AMOXICILLIN]?
Answer: Ratio [1]: 81; MIC [2]: > 512 µg/mL; MIC [3]: 16 µg/mL (≈ 43.8 µM); MIC [4]: 2 µg/mL (≈ 5.47 µM)

Question: How did the Ratio [1] turn out when `CC1(C)S[C@@H]2[C@H](NC(=O)[C@H](C(=O)O)c3ccsc3)C(=O)N2[C@H]1C(=O)O` [TICARCILLIN] was run?
Answer: Its Ratio is 180.

Question: What about the MIC [2] of the same molecule?
Answer: The MIC was over 512 µg/mL.

Question: And the MIC [3]?
Answer: Its MIC is 64 µg/mL (≈ 166 µM).

Question: And the MIC [4]?
Answer: The MIC was 1 µg/mL (≈ 2.6 µM).

Question: How did the MIC [2] turn out when `CO[C@@]1(NC(=O)C(C(=O)O)c2ccc(O)cc2)C(=O)N2C(C(=O)O)=C(CSc3nnnn3C)CO[C@@H]21` (stereo partly specified) [MOXALACTAM] was run?
Answer: Its MIC is 0.25 µg/mL (≈ 0.48 µM).

Question: What about the MIC [3] of the same molecule?
Answer: The MIC was 0.12 µg/mL (≈ 0.231 µM).

Question: And the MIC [4]?
Answer: Its MIC is 0.12 µg/mL (≈ 0.231 µM).

Question: For `CO/N=C(\C(=O)N[C@@H]1C(=O)N2C(C(=O)[O-])=C(C[N+]3(C)CCCC3)CS[C@H]12)c1csc(N)n1`, which Ratio [1] is on record?
Answer: The Ratio was 0.5.

Question: And the MIC [2]?
Answer: Its MIC is 0.12 µg/mL (≈ 0.25 µM).

Question: What about the MIC [3] of the same molecule?
Answer: The MIC was 0.06 µg/mL (≈ 0.125 µM).

Question: For `CO/N=C(\C(=O)N[C@@H]1C(=O)N2C(C(=O)O)=C(COC(N)=O)CS[C@H]12)c1ccco1` [CEFUROXIME], which Ratio [1] is on record?
Answer: Its Ratio is 0.4.

Question: And the MIC [2]?
Answer: The MIC was 8 µg/mL (≈ 18.9 µM).

Question: What about the MIC [3] of the same molecule?
Answer: The MIC was 2 µg/mL (≈ 4.71 µM).

Question: What about the MIC [4] of the same molecule?
Answer: The MIC was 2 µg/mL (≈ 4.71 µM).

Question: Which results are given for `CO[C@@]1(NC(=O)Cc2cccs2)C(=O)N2C(C(=O)O)=C(COC(N)=O)CS[C@@H]21` [CEFOXITIN]?
Answer: MIC [2]: 2 µg/mL (≈ 4.68 µM); MIC [3]: 1 µg/mL (≈ 2.34 µM); MIC [4]: 2 µg/mL (≈ 4.68 µM)

Question: What does the source list for `CO/N=C(\C(=O)N[C@@H]1C(=O)N2C(C(=O)O)=C(CSc3nc(=O)c(O)nn3C)CS[C@H]12)c1csc(N)n1` [CEFTRIAXONE]?
Answer: MIC [2]: 0.06 µg/mL (≈ 0.108 µM); MIC [3]: 0.06 µg/mL (≈ 0.108 µM); MIC [4]: 0.06 µg/mL (≈ 0.108 µM)

Question: `CCN1CCN(C(=O)N[C@@H](C(=O)N[C@@H]2C(=O)N3[C@@H]2SC(C)(C)[C@@H]3C(=O)O)c2ccccc2)C(=O)C1=O` [PIPERACILLIN] was tested. Which Ratio [1] did it give?
Answer: The Ratio was 61.

Question: And the MIC [2]?
Answer: Its MIC is 32 µg/mL (≈ 61.8 µM).

Question: What about the MIC [3] of the same molecule?
Answer: Its MIC is 2 µg/mL (≈ 3.86 µM).

Question: What about the MIC [4] of the same molecule?
Answer: The MIC was 1 µg/mL (≈ 1.93 µM).

Question: With `C[C@@H](O)[C@H]1C(=O)N2C(C(=O)O)=C(SCCNC=N)C[C@H]12` [IMIPENEM ANHYDROUS] as the molecule, how does the Ratio [1] read?
Answer: The Ratio was under 0.01.

Question: And the MIC [3]?
Answer: The MIC was 0.06 µg/mL (≈ 0.2 µM).

Question: Which Ratio [1] does the source give for `CC1(C)S[C@@H]2[C@H](NC(=O)Cc3ccccc3)C(=O)N2[C@H]1C(=O)O` here?
Answer: Its Ratio is 100.

Question: `CO/N=C(\C(=O)N[C@@H]1C(=O)N2C(C(=O)O)=C(COC(C)=O)CS[C@H]12)c1csc(N)n1` [CEFOTAXIME] was tested. Which Ratio [1] did it give?
Answer: The Ratio was 0.2.

Question: And the MIC [2]?
Answer: Its MIC is 1 µg/mL (≈ 2.2 µM).

Question: And the MIC [3]?
Answer: The MIC was 0.06 µg/mL (≈ 0.132 µM).

Question: And the MIC [4]?
Answer: Its MIC is 0.06 µg/mL (≈ 0.132 µM).

Question: What does the source list for `CC(C)(O/N=C(\C(=O)N[C@@H]1C(=O)N2C(C(=O)[O-])=C(C[n+]3ccccc3)CS[C@H]12)c1csc(N)n1)C(=O)O` [CEFTAZIDIME]?
Answer: Ratio [1]: 0.01; MIC [2]: 0.5 µg/mL (≈ 0.915 µM); MIC [3]: 0.06 µg/mL (≈ 0.11 µM); MIC [4]: 0.06 µg/mL (≈ 0.11 µM)

Question: `CO/N=C(\C(=O)N[C@@H]1C(=O)N2C(C(=O)[O-])=C(C[n+]3cccc4c3CCC4)CS[C@H]12)c1csc(N)n1` [CEFPIROME] was tested. Which Ratio [1] did it give?
Answer: Its Ratio is 1.9.

Question: What about the MIC [2] of the same molecule?
Answer: The MIC was 0.25 µg/mL (≈ 0.486 µM).

Question: And the MIC [3]?
Answer: The MIC was 0.06 µg/mL (≈ 0.117 µM).

Question: And the MIC [4]?
Answer: The MIC was 0.06 µg/mL (≈ 0.117 µM).

B1: Gil1 (Citrobacter gillenii), A4KCT8 (protein)
chain: MPHFRLALIPLLTAFCLPAFAHPTTLNKVKEAESQLTARVGYAELDLTSGEILESYRLQERFPMMSTFKVLLCGAVLARVDAGKERLDRRIPFSRRDLVEYSPVTEKHLTDGMTVGELCDAAITMSDNTAANLLLTAIGGPQGLTAFLRTTGDRVTRLDRWEPELNEALPGDKRDTTTPENMAQTLRQLLTGKILTTTSQQQLTHWMVTDKVAGPLLRSVLPAGWFIADKTGAGARGSRGIVAALGPDGKPSRIVVIYITESQATMAERNRQIAGIGATLIQHWDE
Question: With B1 as the molecule, how does the Km [5] read?
Answer: Its Km is 62 µM.

Question: What about the kcat [5] of the same molecule?
Answer: Its kcat is 37 s⁻¹.

Question: And the kcat/Km [5]?
Answer: Its kcat/Km is 598000 M⁻¹ s⁻¹.

Question: And the Km [6]?
Answer: Its Km is 84 µM.

Question: And the kcat [6]?
Answer: The kcat was 381 s⁻¹.

Question: What about the kcat/Km [6] of the same molecule?
Answer: The kcat/Km was 4.54e+06 M⁻¹ s⁻¹.

Question: And the Km [7]?
Answer: Its Km is 10 µM.

Question: And the kcat [7]?
Answer: Its kcat is 100 s⁻¹.

Question: And the kcat/Km [7]?
Answer: Its kcat/Km is 1e+07 M⁻¹ s⁻¹.

Question: What about the Km [8] of the same molecule?
Answer: Its Km is 90 µM.

Question: What about the kcat [8] of the same molecule?
Answer: Its kcat is 306 s⁻¹.

Question: What about the kcat/Km [8] of the same molecule?
Answer: Its kcat/Km is 3.4e+06 M⁻¹ s⁻¹.

Question: And the Km [9]?
Answer: The Km was 2680 µM.

Question: And the kcat [9]?
Answer: Its kcat is 77 s⁻¹.

Question: What about the kcat/Km [9] of the same molecule?
Answer: The kcat/Km was 29000 M⁻¹ s⁻¹.

Question: And the Km [10]?
Answer: The Km was 938 µM.

Question: What about the kcat [10] of the same molecule?
Answer: Its kcat is 0.8 s⁻¹.

Question: What about the kcat/Km [10] of the same molecule?
Answer: The kcat/Km was 1000 M⁻¹ s⁻¹.

Question: And the Km [11]?
Answer: The Km was 1750 µM.

Question: What about the kcat [11] of the same molecule?
Answer: Its kcat is 1 s⁻¹.

Question: What about the kcat/Km [11] of the same molecule?
Answer: Its kcat/Km is 600 M⁻¹ s⁻¹.

Question: And the Km [12]?
Answer: The Km was 51 µM.

Question: And the kcat [12]?
Answer: The kcat was 286 s⁻¹.

Question: And the kcat/Km [12]?
Answer: The kcat/Km was 5.6e+06 M⁻¹ s⁻¹.

Question: What about the Km [13] of the same molecule?
Answer: The Km was 304 µM.

Question: What about the kcat [13] of the same molecule?
Answer: The kcat was 32 s⁻¹.

Question: What about the kcat/Km [13] of the same molecule?
Answer: The kcat/Km was 106000 M⁻¹ s⁻¹.

Question: And the Km [14]?
Answer: Its Km is 714 µM.

Question: And the kcat [14]?
Answer: Its kcat is 7 s⁻¹.

Question: What about the kcat/Km [14] of the same molecule?
Answer: The kcat/Km was 10000 M⁻¹ s⁻¹.

Question: And the Km [15]?
Answer: Its Km is 88 µM.

Question: And the kcat [15]?
Answer: The kcat was 2 s⁻¹.

Question: And the kcat/Km [15]?
Answer: The kcat/Km was 23000 M⁻¹ s⁻¹.

Question: What about the Km [16] of the same molecule?
Answer: The Km was 2980 µM.

Question: And the kcat [16]?
Answer: Its kcat is 0.2 s⁻¹.

Question: What about the kcat/Km [16] of the same molecule?
Answer: The kcat/Km was 500 M⁻¹ s⁻¹.
